The target in data set [1] is T1, 5-HT2A receptor (5-HT2AR) (Homo sapiens, UniProt P28223).
T1 construct: expressed in transfected cells; host or cells: HEK-293
The experiment in a line: Functional assay in HEK-293 cells (IP1). Format: cell-based. Here is the method: (§1) Neuro-receptor binding and functional effects of the “E559 polymorph” was examined by analyzing binding affinity [Ki (nM)], functional agonist activity [EC50 (nM)], and functional antagonist activity [IC50 (nM)] against a panel of key receptors in neurophysiological disorders. Binding and functional assays were performed at “E559 polymorph” concentrations of 0.0003, 0.003, 0.01, 0.03, 0.1, 0.3, 1, and 10 μM. In binding assays, cell membrane homogenates, expressing each receptor target, were incubated with the corresponding radio-ligand in absence or presence of several concentration of the “E559 polymorph” compound. The measurement of binding affinity of the “E559 polymorph” is represented in TABLE XIII by Ki (nM) which was calculated as percent inhibition of the binding of a radioactively labeled reference ligand at each receptor. In functional assays the HEK-293 cells expressing each receptor target were suspended in buffer and distribute in microplates and incubated for 30 minutes at room temperature or 37° C. in the presence of buffer alone (basal control), the reference agonist or antagonist, or the “E559 polymorph. Following incubation, the cells were lysed and the appropriate fluorescent probe (Ca2+ flux, cAMP, or IP1) were added for 60 minutes to measure the fluorescence transfer at the appropriate wavelength using a microplate reader. The cellular agonist effect (EC50) was calculated as a percent of control response to a known reference agonist and the cellular antagonist effect (IC50) was calculated as a percent inhibition of control reference agonist response for each receptor.
(§2) The functional agonist activity [EC50 (nM), Emax], and functional antagonist activity [IC50 (nM)] of the 5R:8S stereoisomer of the “E559 polymorph” (5R:8S E558) was compared with the “E559 polymorph” (a 5R:8R stereoisomer) at selected serotonin receptors. The assays were performed as described in Example 6.

The target of data set [2] is T2, Serotonin 2B receptor (5-HT2BR) (Homo sapiens, UniProt P41595).
T2 construct: expressed in transfected cells; host or cells: HEK-293
The experiment in a line: Functional assay in HEK-293 cells (IP1). The data set is classed as cell-based. Here is the method: as §1, §2

Data set [3] deals with T3, Serotonin 1A receptor (5-HT1AR) (Homo sapiens, UniProt P08908).
T3 construct: expressed in transfected cells; host or cells: HEK-293
T3 sequence (P08908 1-422): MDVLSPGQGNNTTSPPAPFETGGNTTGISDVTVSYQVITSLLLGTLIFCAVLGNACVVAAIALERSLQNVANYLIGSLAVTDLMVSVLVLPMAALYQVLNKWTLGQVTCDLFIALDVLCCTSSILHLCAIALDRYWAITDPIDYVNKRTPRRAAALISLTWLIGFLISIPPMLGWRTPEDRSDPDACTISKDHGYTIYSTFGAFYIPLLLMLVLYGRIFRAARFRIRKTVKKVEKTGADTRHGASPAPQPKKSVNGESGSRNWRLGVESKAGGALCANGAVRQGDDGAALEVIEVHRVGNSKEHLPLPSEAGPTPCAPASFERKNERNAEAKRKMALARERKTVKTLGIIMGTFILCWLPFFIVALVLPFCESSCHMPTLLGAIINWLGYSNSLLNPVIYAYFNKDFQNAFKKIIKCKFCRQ
The experiment in a line: Functional assay in HEK-293 cells (Ca2+ flux). The data set is classed as cell-based. Here is the method:
as §1
In general terms: Calcium flux is commonly read through the fluorescence of an indicator in the cells.

Data set [4] addresses ADRa2A (α2A adrenergic receptor) (Homo sapiens, UniProt P08913). Briefly: BRET-based G protein dissociation assay. The data set is classed as cell-based. (In BRET a luciferase serves as donor, and the signal depends on an acceptor being close.)
The target of data set [5] is ADRa2B (α2B adrenergic receptor) (Homo sapiens, UniProt P18089). The experiment in a line: BRET-based G protein dissociation assay. The data set is classed as cell-based.
Data set [6] concerns the target T4, ADRa2C (α2C adrenergic receptor) (Homo sapiens, UniProt P18825).
T4 sequence (P18825 1-462): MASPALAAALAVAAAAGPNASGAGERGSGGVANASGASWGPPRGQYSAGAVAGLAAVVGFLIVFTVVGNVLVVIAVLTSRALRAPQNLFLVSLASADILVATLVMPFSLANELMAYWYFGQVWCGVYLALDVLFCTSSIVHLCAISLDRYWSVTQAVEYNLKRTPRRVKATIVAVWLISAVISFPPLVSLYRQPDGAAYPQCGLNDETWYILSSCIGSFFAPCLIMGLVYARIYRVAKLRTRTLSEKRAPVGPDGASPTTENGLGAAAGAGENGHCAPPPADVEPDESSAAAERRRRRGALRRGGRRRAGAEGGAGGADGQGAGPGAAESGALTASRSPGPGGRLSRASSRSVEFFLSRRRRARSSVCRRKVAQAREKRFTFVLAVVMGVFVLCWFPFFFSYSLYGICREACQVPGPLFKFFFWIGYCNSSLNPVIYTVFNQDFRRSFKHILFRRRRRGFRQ
Briefly: cell-based.

For data set [7], the target named is H1 histaminergic receptor (Homo sapiens, UniProt P35367). The experiment in a line: BRET-based G protein dissociation assay. The data set is classed as cell-based.
The nature of data set [8]: Single-dose comparative pharmacokinetic study, IV and oral, fasted and fed. The data set is classed as in vivo, Beagle dogs. Here is the method: A single-dose comparative pharmacokinetic (PK) study was conducted in Beagle dogs to assess the oral bioavailability and the effect of food on the “E559 polymorph” (FIG. 12). Four male dogs were used in 3 test groups in a cross-over design with at least 3 days washout period between each test group (Groups 1, 2 and 3). In Group 1, four male dogs received a single intravenous (IV) dose of 0.0324 mg/kg of the “polymorph E559”. In Group 2 the same four dogs received a single oral dose of 0.324 mg/kg of the “polymorph E559” in fasted state. In Group 3 the same four dogs received a single oral dose of 0.324 mg/kg of the “E559 polymorph” in the fed state (same oral dose amount as in Group 2). Blood samples were collected from all dogs at pre-dose and 0.08, 0.25, 0.5, 1, 2, 4, 8, and 24 hours post dose to measure the “E559 polymorph” levels by LC-MS/MS method conducted as described in Example 3.

Data set [9] concerns prefrontal cortex region of mice. Briefly: Spine density analysis in the prefrontal cortex after FST. The data set is classed as in vivo, mouse. Conditions: both sexes, 1 mg/kg, ~26 hour after treatment. Here is the method:
Following testing in the FST, brains were collected for spine density analysis in the prefrontal cortex region (˜26 hour after treatment; FIG. 25H).

Data set [10] has as its target H3 histaminergic receptor (Homo sapiens, UniProt Q9Y5N1). Briefly: BRET-based G protein dissociation assay. The data set is classed as cell-based. The note with it: percentage of the reference ligand-induced maximal response.
Setting [11] is: HEK293, IP1, ligand 5-HT, read-out: Functional Assay (agonist) Emax.
Setting [12] is: read-out: Funcational Assay (antagonist) IC50, IP1, ligand 5-HT.
Setting [13] is: read-out: Functional Assay (agonist) EC50, IP1, ligand 5-HT.

Read-outs that look alike come from different tables or passages of the source.

T1 sequence (P28223 whole entry): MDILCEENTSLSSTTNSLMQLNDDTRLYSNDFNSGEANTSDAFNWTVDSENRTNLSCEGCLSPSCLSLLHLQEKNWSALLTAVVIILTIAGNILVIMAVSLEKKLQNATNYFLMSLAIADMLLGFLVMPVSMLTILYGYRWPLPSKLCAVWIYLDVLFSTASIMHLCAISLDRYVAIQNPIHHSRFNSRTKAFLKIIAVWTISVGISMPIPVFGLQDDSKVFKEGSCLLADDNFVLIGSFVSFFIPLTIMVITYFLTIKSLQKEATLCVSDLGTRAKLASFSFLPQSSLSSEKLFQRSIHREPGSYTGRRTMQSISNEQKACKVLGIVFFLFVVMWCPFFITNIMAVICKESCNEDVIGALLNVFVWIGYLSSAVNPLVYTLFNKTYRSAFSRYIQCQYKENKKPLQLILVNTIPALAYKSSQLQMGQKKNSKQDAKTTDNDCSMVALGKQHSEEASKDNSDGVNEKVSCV
T2 sequence (P41595 whole entry): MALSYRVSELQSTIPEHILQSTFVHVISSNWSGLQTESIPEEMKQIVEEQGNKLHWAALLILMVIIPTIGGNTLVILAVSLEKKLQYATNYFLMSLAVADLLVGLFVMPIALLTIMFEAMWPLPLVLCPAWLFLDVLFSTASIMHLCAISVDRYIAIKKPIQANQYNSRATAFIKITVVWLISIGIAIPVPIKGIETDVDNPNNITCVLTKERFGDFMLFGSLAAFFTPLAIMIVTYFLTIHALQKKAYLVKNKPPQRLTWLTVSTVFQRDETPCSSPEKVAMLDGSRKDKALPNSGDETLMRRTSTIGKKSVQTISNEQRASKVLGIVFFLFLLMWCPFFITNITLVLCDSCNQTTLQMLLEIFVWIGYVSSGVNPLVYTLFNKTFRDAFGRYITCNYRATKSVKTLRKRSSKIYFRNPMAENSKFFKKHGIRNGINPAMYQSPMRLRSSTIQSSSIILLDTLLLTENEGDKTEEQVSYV
H1 histaminergic receptor, sequence (P35367 whole entry): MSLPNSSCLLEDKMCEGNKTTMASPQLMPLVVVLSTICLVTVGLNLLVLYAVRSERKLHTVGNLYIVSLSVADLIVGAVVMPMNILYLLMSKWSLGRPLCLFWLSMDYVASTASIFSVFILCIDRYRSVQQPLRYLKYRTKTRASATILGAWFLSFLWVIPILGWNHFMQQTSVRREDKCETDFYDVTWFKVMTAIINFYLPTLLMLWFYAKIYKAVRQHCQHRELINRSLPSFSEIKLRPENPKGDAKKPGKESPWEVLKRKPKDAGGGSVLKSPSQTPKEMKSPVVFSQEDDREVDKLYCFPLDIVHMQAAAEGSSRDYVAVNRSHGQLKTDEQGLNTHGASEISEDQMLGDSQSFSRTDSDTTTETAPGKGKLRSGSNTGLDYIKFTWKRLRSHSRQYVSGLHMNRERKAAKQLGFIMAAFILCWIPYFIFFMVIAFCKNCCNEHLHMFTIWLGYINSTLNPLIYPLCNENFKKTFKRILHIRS
ADRa2A (α2A adrenergic receptor), sequence (P08913 whole entry): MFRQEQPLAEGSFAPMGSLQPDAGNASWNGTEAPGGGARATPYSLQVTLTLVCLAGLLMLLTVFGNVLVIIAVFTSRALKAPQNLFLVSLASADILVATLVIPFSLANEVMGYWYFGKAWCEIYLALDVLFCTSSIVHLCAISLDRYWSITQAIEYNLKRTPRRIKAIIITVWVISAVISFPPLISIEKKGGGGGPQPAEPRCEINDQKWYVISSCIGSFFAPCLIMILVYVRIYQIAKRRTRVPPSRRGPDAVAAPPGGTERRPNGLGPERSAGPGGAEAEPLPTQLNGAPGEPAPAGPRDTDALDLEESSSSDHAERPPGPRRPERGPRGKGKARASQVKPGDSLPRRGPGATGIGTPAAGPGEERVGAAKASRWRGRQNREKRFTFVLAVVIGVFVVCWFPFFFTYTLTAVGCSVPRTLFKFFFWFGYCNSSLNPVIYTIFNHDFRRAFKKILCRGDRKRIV
H3 histaminergic receptor, sequence (Q9Y5N1 whole entry): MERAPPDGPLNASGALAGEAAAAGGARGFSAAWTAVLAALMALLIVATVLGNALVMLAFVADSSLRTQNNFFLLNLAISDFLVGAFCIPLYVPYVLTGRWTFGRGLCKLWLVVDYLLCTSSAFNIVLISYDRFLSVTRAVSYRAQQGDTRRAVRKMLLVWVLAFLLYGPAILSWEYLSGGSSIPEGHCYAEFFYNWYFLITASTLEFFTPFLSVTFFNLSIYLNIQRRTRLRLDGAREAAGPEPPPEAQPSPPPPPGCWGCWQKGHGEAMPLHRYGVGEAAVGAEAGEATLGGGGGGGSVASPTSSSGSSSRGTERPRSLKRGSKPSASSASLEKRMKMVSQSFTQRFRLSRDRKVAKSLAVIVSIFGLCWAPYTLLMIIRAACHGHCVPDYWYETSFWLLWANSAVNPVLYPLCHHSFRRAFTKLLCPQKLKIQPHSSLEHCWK
ADRa2B (α2B adrenergic receptor), sequence (P18089 whole entry): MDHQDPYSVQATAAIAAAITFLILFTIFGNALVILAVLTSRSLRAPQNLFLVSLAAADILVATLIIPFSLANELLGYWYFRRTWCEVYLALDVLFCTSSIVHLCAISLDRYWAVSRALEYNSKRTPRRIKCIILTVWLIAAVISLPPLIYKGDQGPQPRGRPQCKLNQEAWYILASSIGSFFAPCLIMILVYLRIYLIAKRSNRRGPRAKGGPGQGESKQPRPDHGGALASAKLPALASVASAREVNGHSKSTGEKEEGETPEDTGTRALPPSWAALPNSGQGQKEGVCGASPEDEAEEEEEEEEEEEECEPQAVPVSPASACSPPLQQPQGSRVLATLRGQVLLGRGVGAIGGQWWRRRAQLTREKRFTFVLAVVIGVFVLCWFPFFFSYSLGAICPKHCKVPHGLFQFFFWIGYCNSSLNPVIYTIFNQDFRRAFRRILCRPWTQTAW

The term EC50 denotes the concentration giving half of the maximal effect. The IC50 is the concentration that inhibits the measured activity by half. For orientation: Emax means the size of the effect at its maximum, as opposed to the concentration needed. As for `CCN(CC)C(=O)[C@@H]1C=C2c3cccc4[nH]c(Br)c(c34)C[C@H]2N(C)C1` [E559, (5R, 8R)-2-Bromo-9,10-didehydro-N,N-diethyl-6-methylergoline-8-carboxamide hemi-D-tartrate], the EC50 in data set [1] is 11 nM; in [1] (setting [13]) it was 11 nM; in data set [2], greater than 10000 nM; in data set [2] (setting [13]), greater than 10000 nM; in data set [3], 3000 nM; in data set [4], 282 nM. For the same molecule, the EC50 in data set [6] amounted to 10.3 nM; in data set [7], 152 nM. Also, the IC50 in data set [1] is 24.9 nM; in data set [1] (setting [12]) it was 24.9 nM; in data set [2] it was 97 nM; in data set [2] (setting [12]) it was 97 nM; in data set [3], greater than 10000 nM. Moreover, the Emax was found to be 99% in data set [1] (setting [11]), 0% in data set [2] (setting [11]) and 40.5% in data set [6]. Besides, the Kb in data set [4] worked out at 11.9 nM; in data set [5], 79.2 nM; in data set [6], 16 nM; in data set [7] it was 983 nM. In addition, the oral bioavailability entry in [8] (oral 0.324 mg/kg vs IV 0.0324 mg/kg) was “good oral bioavailability”. Also, the “effect of food on oral bioavailability” value in data set [8] (oral 0.324 mg/kg, fasted vs fed) was “no differences in the mean absolute and relative oral bioavailability between fasted and fed dogs”. For the same molecule, the “average spine density in prefrontal cortex” value in [9] was “significant increase in the average spine density”.

`CCN(CC)C(=O)[C@@H]1C=C2c3cccc4[nH]cc(c34)C[C@H]2N(C)C1` [LSD, lysergic acid diethylamide, reference compound] returned a maximal effect (Emax) in [10] of 18.6%.

Source of the values: patent US12331051B2 (priority 2021, dated 2025).
